Reference: US11185074B2, “Microbiocidal quinoline (thio)carboxamide derivatives” (SYNGENTA PARTICIPATIONS AG, priority 2017, dated 2021)

Columns and labels:
[1] = system: Botryotinia fuckeliana (Botrytis cinerea); assay: Botryotinia fuckeliana (Botrytis cinerea) / liquid culture (gray mould); type: cell-based; details: 72 h, 20 ppm, liquid culture, inhibition of growth photometrically 3-4 days after application, compared to untreated control, read-out: control of Botryotinia fuckeliana
[2] = system: Glomerella lagenarium (Colletotrichum lagenarium); assay: Glomerella lagenarium (Colletotrichum lagenarium) / liquid culture (anthracnose); type: cell-based; details: Colletotrichum orbiculare; 20 ppm; liquid culture, inhibition of growth photometrically 3-4 days after application; compared to untreated control; read-out: control of Glomerella lagenarium
Fusarium culmorum [3] = assay: microbe, parasite or virus in culture; type: cell-based; details: read-out: control of Fusarium culmorum
Fusarium culmorum [4] = assay: whole plant or invertebrate; type: in vivo, Fusarium culmorum on wheat spikelets cv. Monsun; details: in Triticum aestivum, read-out: control of Fusarium culmorum
[5] = system: Monographella nivalis (Microdochium nivale); assay: Monographella nivalis (Microdochium nivale) / liquid culture (foot rot cereals); type: cell-based; details: 96 h, inhibition of growth photometrically 4-5 days after application, compared to untreated control
[6] = system: Magnaporthe grisea (Pyricularia oryzae); assay: microbe, parasite or virus in culture; type: cell-based; details: 72 h, read-out: control of Magnaporthe grisea
[7] = system: Magnaporthe grisea (Pyricularia oryzae); assay: whole plant or invertebrate; type: in vivo; details: foliar, read-out: control of Magnaporthe grisea
Sclerotinia sclerotiorum = Sclerotinia sclerotiorum / liquid culture (cottony rot); details: 72 h, read-out: control of Sclerotinia sclerotiorum
Method: Sclerotinia sclerotiorum/Liquid Culture (Cottony Rot)
Mycelia fragments of a newly grown liquid culture of the fungus are directly mixed into nutrient broth (Vogels broth). After placing a (DMSO) solution of test compound into a microtiter plate (96-well format) the nutrient broth containing the fungal material is added. The test plates are incubated at 24° C. and the inhibition of growth is determined photometrically 3-4 days after application.

[8] = system: Gibberella zeae (Fusarium graminearum); assay: whole plant or invertebrate; type: in vivo; details: in Triticum aestivum, 144 h, read-out: control of Gibberella zeae

Compound | inhibition of growth at 20 ppm [1] [%] | inhibition of growth at 20 ppm [2] [%] | inhibition of growth at 20 ppm (Fusarium culmorum [3]) [%] | pest or weed control at 200 ppm (Fusarium culmorum [4]) [%] | inhibition of growth at 20 ppm [5] [%] | inhibition of growth at 20 ppm [6] [%] | pest or weed control at 200 ppm [7] [%] | melting point [°C] | inhibition of growth at 20 ppm (Sclerotinia sclerotiorum) [%] | pest or weed control at 200 ppm [8] [%]
C=C(Cl)CC(C)(CC1CCCCC1)NC(=O)c1cnc2c(F)cccc2c1 (centres unmarked) [E-37] | ≥ 80 | ≥ 80 | ≥ 80 | ≥ 80 | ≥ 80 | ≥ 80 | ≥ 80 | 109 to 111 | ≥ 80 | –
CC1(C[C@@](C)(CC(F)(F)F)NC(=O)c2cnc3c(F)cccc3c2)CC1 [F-2, 8-fluoro-N-[(1S)-3,3,3-trifluoro-1-methyl-1-[(1-methylcyclo-propyl)meth-yl]propyl]quinoline-3-carboxamide] | ≥ 80 | ≥ 80 | ≥ 80 | ≥ 80 | ≥ 80 | ≥ 80 | ≥ 80 | – | – | ≥ 80
CC(CC1CCCC1)(CC(F)(F)F)NC(=O)c1cnc2c(F)cccc2c1 (centres unmarked) [E-59] | ≥ 80 | ≥ 80 | ≥ 80 | ≥ 80 | ≥ 80 | ≥ 80 | ≥ 80 | 100 to 102 | ≥ 80 | ≥ 80
CC(CC1CCCCC1)(CC(F)(F)F)NC(=O)c1cnc2c(F)c(F)ccc2c1 (centres unmarked) [E-58] | ≥ 80 | ≥ 80 | ≥ 80 | – | ≥ 80 | ≥ 80 | ≥ 80 | 99 to 102 | ≥ 80 | –
